The Ki is a measure of affinity in units of concentration, obtained from inhibition or displacement.

The target of the assay is recombinant human angiotensin-II receptor subtype 2 (hAT2R) (Homo sapiens (Human), UniProt P50052). Description: Competitive radioligand binding assay (SPA), hAT2R HEK293 membranes. The settings on record: [125I]-Tyr4-Angiotensin-II, read-out: AT2R Ki. The method, then: Compound Solubilization Test and reference compounds were received as dry powder reagents, weighed, and solubilized in 100% DMSO to generate a working stock concentration of 10 mM. Membrane Preparation Protocol (hAT2R HEK293 and rAT2R HEK293) hAT2R membranes were prepared from human embryonic kidney (HEK293) cells which were stably transfected with recombinant human angiotensin-II receptor subtype 2 (hAT2R). Cells from the stable cell lines were expanded in tissue culture flasks to generate a large population of cells; cell pellet (>1 gm), and these cell pellets were stored frozen prior to initiating this membrane isolation procedure for each receptor isoform. Frozen cell pellets were thawed in ice-cold homogenization/resuspension buffer (50 mM Tris-HCl, pH 7.5) containing one Complete© protease inhibitor tablet with EDTA (Roche Diagnostics) per 50 mL buffer, and cell pellet was resuspended at a ratio of 10 mL homogenization buffer to gram of starting cell pellet. Cell suspension was homogenized with an overhead motor-driven Teflon-glass homogenizer using 15 to 20 strokes, followed by centrifugation at 1100×g for 10 minutes at 4° C. The supernatant was saved on ice, pellets were homogenized as before, and centrifuged at 1100×g for 10 minutes at 4° C. Both supernatants were combined and subsequently centrifuged at 35,000×g for 60 minutes at 4° C. The final centrifugation pellet (pellet 2) containing the isolated membranes was resuspended in buffer (4 to 5 mL/g of starting cell paste) containing protease inhibitors and quick frozen in liquid nitrogen prior to storage at -80° C. Protein concentration was determined using a BCA kit (ThermoScientific, Inc.) with bovine serum albumin (BSA) as standard. […] The assays were performed with a scintillation proximity assay (SPA) method using polyvinyltoluene (PVT) wheat germ agglutinin-coupled SPA beads (Perkin Elmer Cat. #RPNQ0001). Assay buffer containing BSA (50 mM Tris-HCl, pH 7.5, 150 mM NaCl, 0.1% w/v fatty-acid free BSA) was used for preparing radioligand, membrane and SPA bead reagent dilution to working stock concentrations. Reference control and test compounds were diluted to obtain ten-point concentration response curves using a four-fold serial dilution protocol onto assay plates, dispensed acoustically from DMSO stock using automated ECHO instrument technology (Labcyte, Inc.). Concentration response curves were routinely generated with the highest final assay concentration for the reference angiotensin-II control at 50 nM, and the highest final assay concentration for the test compounds at 50 μM. […] The hAT2R membrane was combined with PVT-WGA SPA beads to obtain a final assay concentration of 0.25 μg/well hAT2R membrane+0.1 mg/well PVT-WGA SPA bead. And the hAT1R membrane PVT-WGA SPA bead final concentrations was 0.5 μg/well hAT1R membrane+0.1 mg/well PVT-WGA SPA bead. […] For all assays, radioligand addition was followed by the addition of membrane-SPA bead mixture, i.e., the hAT2R membrane-SPA bead mixture (30 μL), the rAT2R membrane-SPA bead mixture, or the AT1R membrane-SPA bead mixture (30 μL) into the assay plate. All dispensing steps were added using a Multiflo FX (Biotek, Inc.) bulk dispensing instrument. After reagent addition steps, assay plates were sealed, and plate contents mixed for one minute on a benchtop micro-plate shaker. Following a 10-hour incubation at room temperature to allow for bead settling and radioligand binding, bound radioactivity was quantitated using a Microbeta Trilux scintillation counter (Perkin Elmer) and expressed as counts per minute (CPM). The unlabeled angiotensin-II control was included on each plate as an experimental assay reference. […] Data Analysis Procedures Compounds were tested in a 10-point concentration response curve (CRC) format, with each plate containing the positive control angiotensin-II positive reference compound, and experimental compounds.
recombinant human angiotensin-II receptor subtype 2 (hAT2R), sequence (P50052 whole entry): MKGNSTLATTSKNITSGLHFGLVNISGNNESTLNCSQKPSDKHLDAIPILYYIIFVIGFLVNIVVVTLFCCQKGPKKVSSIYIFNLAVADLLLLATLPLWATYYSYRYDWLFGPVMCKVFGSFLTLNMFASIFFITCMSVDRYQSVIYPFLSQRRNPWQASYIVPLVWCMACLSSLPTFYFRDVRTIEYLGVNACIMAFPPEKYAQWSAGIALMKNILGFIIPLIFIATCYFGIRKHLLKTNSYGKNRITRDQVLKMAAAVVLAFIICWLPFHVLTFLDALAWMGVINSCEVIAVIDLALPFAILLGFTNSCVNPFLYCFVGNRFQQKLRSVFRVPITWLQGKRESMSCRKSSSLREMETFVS

Turning to `CCC(C1CC1)N(C(=O)CC1(C(=O)O)CCN(C(=O)N(C)c2ccc(F)cc2)CC1)c1ccccc1` (racemic) [Example 17, 4-[2-[N-(1-cyclopropylpropyl)anilino]-2-oxo-ethyl]-1-[(4-fluorophenyl)-methyl-carbamoyl]piperidine-4-carboxylic acid], the Ki amounted to 5.82 nM.
For `Cc1ccc(N(C)C(=O)N2CCC(CC(=O)N(c3ccccc3)C3CCCCC3)(C(=O)O)CC2)cc1` [Example 13, 4-[2-(N-cyclohexylanilino)-2-oxo-ethyl]-1-[methyl(p-tolyl)carbamoyl]piperidine-4-carboxylic acid], the Ki stood at 1.44 nM.
The same measure for `O=C(N1CCC(CC(=O)N(c2ccccc2)c2ccccc2F)(C(=O)O)CC1)N1CCc2ccccc21` [Example 56, 4-[2-(N-(2-fluorophenyl)anilino)-2-oxo-ethyl]-1-(indoline-1-carbonyl)piperidine-4-carboxylic acid]: 2.99 nM; for `CC(C)c1ccc(C(=O)N2CCC(CC(=O)N(c3ccccc3)C3CCCC(F)(F)C3)(C(=O)O)CC2)cc1` (racemic) [Example 69, 4-[2-(N-(3,3-difluorocyclohexyl)anilino)-2-oxo-ethyl]-1-(4-isopropylbenzoyl)piperidine-4-carboxylic acid]: 9.24 nM; for `O=C(CC1(C(=O)O)CCN(c2ccccn2)CC1)N(c1ccccc1)C1CCCCC1` [Example 49, 4-[2-(N-cyclohexylanilino)-2-oxo-ethyl]-1-(2-pyridyl)piperidine-4-carboxylic acid]: 5.21 nM.
The value for `O=C(N1CCC(CC(=O)N(c2ccccc2)C2CCCC(F)(F)C2)(C(=O)O)CC1)N1CCc2ccc(F)cc21` (racemic) [Example 72, 4-[2-(N-(3,3-difluorocyclohexyl)anilino)-2-oxo-ethyl]-1-(6-fluoroindoline-1-carbonyl)piperidine-4-carboxylic acid] was 1.09 nM; that for `CCCCCn1c(Br)nnc1N1CCC(CC(=O)N(c2ccccc2)c2ccccc2)(C(=O)O)CC1` [Example 4, 1-(5-bromo-4-pentyl-1,2,4-triazol-3-yl)-4-[2-oxo-2-(N-phenylanilino)ethyl]piperidine-4-carboxylic acid] was 5.13 nM.
The same measure for `CC(C)N(C(=O)N1CCC(CC(=O)N(c2ccccc2)c2ccccc2F)(C(=O)O)CC1)c1ccc(F)cc1` [Example 38, 4-[2-(N-(2-fluorophenyl)anilino)-2-oxo-ethyl]-1-[(4-fluorophenyl)-isopropyl-carbamoyl]piperidine-4-carboxylic acid]: 6.46 nM; for `CN(C(=O)N1CCC(CC(=O)N(c2ccccc2)C2CCCOC2)(C(=O)O)CC1)c1ccc(C2CC2)cc1` (single isomer, unassigned) [Example 45B, 1-[(4-cyclopropylphenyl)-methyl-carbamoyl]-4-[2-oxo-2-(N-tetrahydropyran-3-ylanilino)ethyl]piperidine-4-carboxylic acid]: 2.68 nM; for `CN(C(=O)N1CCC(CC(=O)N(c2ccccc2)C2(C3CC3)CC2)(C(=O)O)CC1)c1ccc(F)cc1` [compound 20, 4-[2-(N-(1-cyclopropylcyclopropyl)anilino)-2-oxo-ethyl]-1-[(4-fluorophenyl)-methyl-carbamoyl]piperidine-4-carboxylic acid]: 2.11 nM.
As to `CC(C1CC1)N(C(=O)CC1(C(=O)O)CCN(C(=O)N(C)c2ccc(F)cc2)CC1)c1ccccc1` (single isomer, unassigned) [Example 43B, 4-[2-[N-(1-cyclopropylethyl)anilino]-2-oxo-ethyl]-1-[(4-fluorophenyl)-methyl-carbamoyl]piperidine-4-carboxylic acid], the Ki stood at 20.1 nM.
Consider `O=C(N1CCC(CC(=O)N(c2ccccc2)c2ccc(F)cc2)(C(=O)O)CC1)N1CCc2ccccc21` [Example 58, 4-[2-(N-(4-fluorophenyl)anilino)-2-oxo-ethyl]-1-(indoline-1-carbonyl)piperidine-4-carboxylic acid], for which the Ki is 9.86 nM.
The value for `CC(C)c1ccc(N(C(=O)CC2(C(=O)O)CCN(C(=O)N(C)c3ccc(F)cc3)CC2)c2ccccc2)cc1` [compound 28, 1-[(4-fluorophenyl)-methyl-carbamoyl]-4-[2-(N-(4-isopropylphenyl)anilino)-2-oxo-ethyl]piperidine-4-carboxylic acid] was 3.39 nM.
The same measure for `CC(C)c1ccc(C(=O)N2CCC(CC(=O)N(c3ccccc3)C3CCCC(F)(F)C3)(C(=O)O)CC2)c(F)c1` (racemic) [Example 68, 4-[2-(N-(3,3-difluorocyclohexyl)anilino)-2-oxo-ethyl]-1-(2-fluoro-4-isopropyl-benzoyl)piperidine-4-carboxylic acid]: 2.93 nM.
The value for `CN(C(=O)N1CCC(CC(=O)N(c2ccc(F)cc2)C2CCCCC2)(C(=O)O)CC1)c1ccc(F)cc1` [compound 21, 4-[2-(N-cyclohexyl-4-fluoro-anilino)-2-oxo-ethyl]-1-[(4-fluorophenyl)-methyl-carbamoyl]piperidine-4-carboxylic acid] was 4.01 nM; that for `CC(C(=O)N1CCC(CC(=O)N(c2ccccc2)C2CCCC(F)(F)C2)(C(=O)O)CC1)c1cccc(F)c1` (racemic) [Example 63, 4-[2-(N-(3,3-difluorocyclohexyl)anilino)-2-oxo-ethyl]-1-[2-(3-fluorophenyl)propanoyl]piperidine-4-carboxylic acid] was 1.19 nM; that for `CN(C(=O)N1CCC(CC(=O)N(c2ccccc2)C2CCCOC2)(C(=O)O)CC1)c1ccc(C2CC2)cc1` (racemic) [Example 45, 1-[(4-cyclopropylphenyl)-methyl-carbamoyl]-4-[2-oxo-2-(N-tetrahydropyran-3-ylanilino)ethyl]piperidine-4-carboxylic acid] was 3.12 nM.
In the case of `O=C(CC1(C(=O)O)CCN(C(=O)N(c2ccc(F)cc2)C2CC2)CC1)N(c1ccccc1)c1ccccc1F` [Example 40, 1-[cyclopropyl-(4-fluorophenyl)carbamoyl]-4-[2-(N-(2-fluorophenyl)anilino)-2-oxo-ethyl]piperidine-4-carboxylic acid], the Ki came out at 1.37 nM.
Regarding `CC(C)C(C)N(C(=O)CC1(C(=O)O)CCN(C(=O)N(C)c2ccc(F)cc2)CC1)c1ccccc1` (racemic) [Example 34, 4-[2-(N-[(1)-1,2-dimethylpropyl]anilino)-2-oxo-ethyl]-1-[(4-fluorophenyl)-methyl-carbamoyl]piperidine-4-carboxylic acid], the Ki was determined as 4.32 nM.
`CN(C(=O)N1CCC(CC(=O)N(c2ccccc2)C2CCCOC2)(C(=O)O)CC1)c1ccc(C2CC2)cc1` (single isomer, unassigned) [Example 45A, 1-[(4-cyclopropylphenyl)-methyl-carbamoyl]-4-[2-oxo-2-(N-tetrahydropyran-3-ylanilino)ethyl]piperidine-4-carboxylic acid]: the Ki turned out to be 1.55 nM.
As to `CN(C(=O)N1CCC(CC(=O)N(c2ccccc2)C2CCCOC2)(C(=O)O)CC1)c1ccc(F)cc1` (single isomer, unassigned) [Example 41B, 1-[(4-fluorophenyl)-methyl-carbamoyl]-4-[2-oxo-2-(N-tetrahydropyran-3-ylanilino)ethyl]piperidine-4-carboxylic acid], the inhibition constant (Ki) was 14.7 nM.
Regarding `O=C(CC1(C(=O)O)CCN(c2ncncc2C2CC2)CC1)N(c1ccccc1)c1ccccc1` [Example 5, 1-(5-cyclopropylpyrimidin-4-yl)-4-(2-(diphenylamino)-2-oxoethyl)piperidine-4-carboxylic acid], the Ki was 9.15 nM.

Values taken from patent publication US12122750B2, “AT2R antagonists and uses thereof” (Eli Lilly and Company, priority 2022, dated 2024).
